Measurements taken from ChEMBL document CHEMBL3817825, “Synthesis and biological evaluation of Schiff base-linked imidazolyl naphthalimides as novel potential anti-MRSA agents” (2016).
≈ marks a conversion by molar mass, not a printed value. Calls of active or inactive are those of the source. No cut-off for these calls is given here.

Tests used:
Pseudomonas aeruginosa = assay: Antibacterial activity against Pseudomonas aeruginosa ATCC27853 after 24 hrs by two fold serial dilution method; format: functional; conditions: ATCC27853, 24 h
Staphylococcus aureus [1] = assay: Bactericidal activity against methicillin-resistant Staphylococcus aureus N315 assessed as reduction in viable bacterial count at 6 times MIC within 1.5 hrs by time kill assay; format: functional
Staphylococcus aureus [2] = assay: Potency index, ratio of chloromycin MIC to compound MIC for methicillin-resistant Staphylococcus aureus N315; format: functional
Cyberlindnera jadinii [3] = assay: Antifungal activity against Candida utilis ATCC9950 after 24 hrs by two fold serial dilution method; format: functional; conditions: Williopsis jadinii, ATCC9950, 24 h
Aspergillus flavus = assay: Antifungal activity against Aspergillus flavus ATCC204304 after 24 hrs by two fold serial dilution method; format: functional; conditions: ATCC204304, 24 h
Bacillus [4] = assay: Antibacterial activity against Bacillus proteus ATCC13315 after 24 hrs by two fold serial dilution method; format: functional; conditions: ATCC13315, 24 h
Shigella dysenteriae = assay: Antibacterial activity against Shigella dysenteriae after 24 hrs by two fold serial dilution method; format: functional
Calf thymus DNA [5] = assay: Binding affinity to calf thymus DNA at 260 nm by UV-Vis spectroscopy; format: nucleic-acid assay; conditions: Bos taurus
Saccharomyces cerevisiae = assay: Antifungal activity against Beer yeast ATCC9763 after 24 hrs by two fold serial dilution method; format: functional; conditions: ATCC9763, 24 h
Escherichia coli [6] = assay: Antibacterial activity against Escherichia coli DH52 after 24 hrs by two fold serial dilution method; format: functional; conditions: DH52, 24 h
Bacillus [7] = assay: Antibacterial activity against Bacillus proteus ATCC13315 assessed as membrane permeabilization at 12 times MIC monitored for 2 hrs by propidium iodide staining method; format: functional, organism-based
Escherichia coli [8] = assay: Antibacterial activity against Escherichia coli JM109 after 24 hrs by two fold serial dilution method; format: functional; conditions: JM109, 24 h
Staphylococcus aureus [9] = assay: Antibacterial activity against methicillin-resistant Staphylococcus aureus N315 after 24 hrs by two fold serial dilution method; format: functional; conditions: N315, 24 h
Calf thymus DNA [10] = assay: Binding affinity to neutral red bound calf thymus DNA assessed as increase in absorption at 460 nm at 0 to 10.5 X 10^-5 mol/L by UV-Vis spectroscopy; format: nucleic-acid assay; conditions: Bos taurus
Staphylococcus aureus [11] = assay: Ratio of MIC for methicillin-resistant Staphylococcus aureus N315 after 10 passages to MIC for methicillin-resistant Staphylococcus aureus N315 before 10 passages; format: functional
Calf thymus DNA [12] = assay: Binding affinity to calf thymus DNA assessed as hypochromism at 260 nm at 0 to 9 X 10^-5 mol/L by UV-Vis spectroscopy; format: nucleic-acid assay; conditions: Bos taurus
Micrococcus luteus = assay: Antibacterial activity against Micrococcus luteus ATCC4698 after 24 hrs by two fold serial dilution method; format: functional; conditions: ATCC4698, 24 h
Salmonella typhi = assay: Antibacterial activity against Bacillus typhi after 24 hrs by two fold serial dilution method; format: functional, Salmonella enterica subsp. enterica serovar Typhi; conditions: Salmonella enterica
Staphylococcus aureus [13] = assay: Potency index, ratio of norfloxacin MIC to compound MIC for methicillin-resistant Staphylococcus aureus N315; format: functional
Candida = assay: Antifungal activity against Candida mycoderma ATCC10231 after 24 hrs by two fold serial dilution method; format: functional; conditions: ATCC10231, 24 h
Candida albicans = assay: Antifungal activity against Candida albicans ATCC76615 after 24 hrs by two fold serial dilution method; format: functional; conditions: ATCC76615, 24 h
Staphylococcus aureus [14] = assay: Antibacterial activity against methicillin-resistant Staphylococcus aureus N315 at 0.5 times MIC after 10 passages by two fold serial dilution method; format: functional, organism-based
Staphylococcus aureus [15] = assay: Antibacterial activity against methicillin-resistant Staphylococcus aureus N315 assessed as membrane permeabilization at 12 times MIC monitored for 2 hrs by propidium iodide staining method; format: functional, organism-based
Staphylococcus aureus [16] = assay: Antibacterial activity against Staphylococcus aureus ATCC25923 after 24 hrs by two fold serial dilution method; format: functional; conditions: ATCC25923, 24 h
Bacillus subtilis = assay: Antibacterial activity against Bacillus subtilis ATCC6633 after 24 hrs by two fold serial dilution method; format: functional; conditions: ATCC6633, 24 h
Cyberlindnera jadinii [17] = assay: Potency index, ratio of fluconazole MIC to compound MIC for Candida utilis ATCC9950; format: functional

| Compound | MIC (Pseudomonas aeruginosa) [µM] | MIC (Cyberlindnera jadinii [3]) [µM] | MIC (Aspergillus flavus) [µM] | MIC (Bacillus [4]) [µM] | MIC (Shigella dysenteriae) [µM] | MIC (Saccharomyces cerevisiae) [µM] | MIC (Escherichia coli [6]) [µM] | MIC (Escherichia coli [8]) [µM] | MIC (Staphylococcus aureus [9]) [µM] | MIC (Micrococcus luteus) [µM] | MIC (Salmonella typhi) [µM] | MIC (Candida) [µM] | MIC (Candida albicans) [µM] | MIC (Staphylococcus aureus [16]) [µM] | MIC (Bacillus subtilis) [µM] | other results |
| --- | --- | --- | --- | --- | --- | --- | --- | --- | --- | --- | --- | --- | --- | --- | --- | --- |
| CCCCc1nc(Cl)c(/C=N/N2C(=O)c3cccc4c(N5CCOCC5)ccc(c34)C2=O)n1Cc1ccc([N+](=O)[O-])cc1 | 50 (≈ 30.1 µg/mL) | 10 (≈ 6.01 µg/mL) | 110 (≈ 66.1 µg/mL) | 110 (≈ 66.1 µg/mL) | 0.11 (≈ 0.0661 µg/mL) | 420 (≈ 252 µg/mL) | 420 (≈ 252 µg/mL) | 50 (≈ 30.1 µg/mL) | 3 (≈ 1.8 µg/mL) | 850 (≈ 511 µg/mL) | 0.11 (≈ 0.0661 µg/mL) | 50 (≈ 30.1 µg/mL) | 3 (≈ 1.8 µg/mL) | 210 (≈ 126 µg/mL) | 210 (≈ 126 µg/mL) | Activity (Staphylococcus aureus [1]): >3 log10CFU/ml; Ratio (Staphylococcus aureus [2]): 17; K (Calf thymus DNA [5]): 0.59 ×10⁴ L/mol; Activity (Bacillus [7]): Active; Activity (Calf thymus DNA [10]): Active; Ratio (Staphylococcus aureus [11]): <=100; Activity (Calf thymus DNA [12]): Active; Ratio (Staphylococcus aureus [13]): 7; Activity (Staphylococcus aureus [14]): Active; Activity (Staphylococcus aureus [15]): Active |
| CCCCCCCCCCn1c(CCCC)nc(Cl)c1/C=N/N1C(=O)c2cccc3c(N4CCOCC4)ccc(c23)C1=O | 420 (≈ 255 µg/mL) | 3 (≈ 1.82 µg/mL) | 210 (≈ 127 µg/mL) | 210 (≈ 127 µg/mL) | 0.1 (≈ 0.0606 µg/mL) | 420 (≈ 255 µg/mL) | 420 (≈ 255 µg/mL) | 840 (≈ 509 µg/mL) | 30 (≈ 18.2 µg/mL) | 840 (≈ 509 µg/mL) | 0.84 (≈ 0.509 µg/mL) | 210 (≈ 127 µg/mL) | 210 (≈ 127 µg/mL) | 420 (≈ 255 µg/mL) | 30 (≈ 18.2 µg/mL) | Ratio (Cyberlindnera jadinii [17]): 10 |
